Data as given in patent publication US20160264593A1 (priority 2013, published 2016).
Where two headings read alike, the source gives them in different places.

Tests used:
[1] = set-up: species or system SD rats; settings: male, SD, rat, in vivo, iv, 1 mg/kg
Protocol: 105 was dissolved in 4% NaHCO3 in saline for IV administration. The detailed procedure of dosing solution preparation was presented in Appendix I.
Thirteen (13) animals were placed on the study. The animals in IV arm were free access to food and water. One extra animal was used for blank liver and plasma generation (5 mL per animal). The resulting blank liver and plasma was then applied to the development of bioanalytical method and sample bioanalysis for the entire study.
The IV injection was conducted via foot dorsal vein. Animals were free access to food and water before dose.
The animal is restrained manually. Approximately 150 μL of blood/time point is collected into sodium heparin tube via cardiac puncture for terminal bleeding (anesthetized under carbon dioxide). Blood sample will be put on ice and centrifuged to obtain plasma sample (2000 g, 5 min under 4° C.) within 10 minutes.
The animal will be euthanized with carbon dioxide inhalation. Open abdominal cavity with scissor to expose internal organs. Hold the carcass in an upright position and allow the organs to fall forward. Cut the connective tissues and remove the organs. […]
The PK parameters were determined by non-compartmental model of non-compartmental analysis tool, Pharsight Phoenix WinNonlin® 6.2 software. […]

[2] = tested on: PP2A in circulating white blood cells; assay: Inhibition of PP2A in circulating white blood cells after slow iv 100; type: in vivo; settings: rat
[3] = Microsomal stability, rat microsomes; type: in vitro ADME; settings: relative to verapamil
[4] = Microsomal stability, dog microsomes; type: in vitro ADME; settings: relative to verapamil
[5] = Microsomal stability, human microsomes; type: in vitro ADME; settings: relative to verapamil
human cancer cell lines = assay: IC50 for a broad spectrum of human cancer cell lines; type: cell-based
[6] = day 4, cited from earlier work
[7] = female dogs, day 4, cited from earlier work
in vivo = settings: rat, po
[8] = Oral administration of 100 and 151 (Discussion): oral bioavailability, plasma and brain levels

SMILES: O=C(O)C1C2CCC(O2)C1C(=O)O (stereo not shown) [Endothal, 7-oxabicyclo[2.2.1]heptane-2,3-dicarboxylic acid]
- AUC(0-t) [1]: 3152 ng·h/mL
- Tmax [1]: 15 min

SMILES: CN1CCN(C(=O)C2C3CCC(O3)C2C(=O)O)CC1 (stereo not shown) [Compound 100, 3-(4-methylpiperazine-1-carbonyl)-7-oxa-bicyclo[2,2,1]-heptane-2-carboxylic acid]
- inhibition of PP2A in circulating white blood cells ([2]; 100 slow iv 0.375 mg/kg): 9%
- inhibition of PP2A in circulating white blood cells ([2]; 100 slow iv 0.75 mg/kg): 15%
- inhibition of PP2A in circulating white blood cells ([2]; 100 slow iv 1.5 mg/kg): 25%
- stability in the presence of microsomes [3]: stable relative to verapamil
- stability in the presence of microsomes [4]: stable relative to verapamil
- stability in the presence of microsomes [5]: stable relative to verapamil
- IC50 (human cancer cell lines): 1 to 3 µM
- Cl ([6]; MALE rats, 0.5 mg/kg): 17.85 mL/min/kg
- Cl ([6]; MALE rats, 0.75 mg/kg): 22.32 mL/min/kg
- Cl ([6]; MALE rats, 1.25 mg/kg): 15.8 mL/min/kg
- % AUC* Extrapolated ([6]; female rats, 0.5 mg/kg): 5.6%
- AUC* ([6]; female rats, 0.5 mg/kg): 479 ng·h/mL
- AUClast ([6]; female rats, 0.5 mg/kg): 452 ng·h/mL
- Cl ([6]; female rats, 0.5 mg/kg): 17.42 mL/min/kg
- Co ([6]; female rats, 0.5 mg/kg): 1497 ng/mL
- DN AUClast ([6]; female rats, 0.5 mg/kg): 904
- SC AUClast ([6]; female rats, 0.5 mg/kg): 17.7 ng·h/mL
- T1/2 ([6]; female rats, 0.5 mg/kg): 15 min
- Vz ([6]; female rats, 0.5 mg/kg): 0.378 L/kg
- % AUC* Extrapolated ([6]; female rats, 0.75 mg/kg): 27%
- AUC* ([6]; female rats, 0.75 mg/kg): 949 ng·h/mL
- AUClast ([6]; female rats, 0.75 mg/kg): 691 ng·h/mL
- Cl ([6]; female rats, 0.75 mg/kg): 13.2 mL/min/kg
- Co ([6]; female rats, 0.75 mg/kg): 2347 ng/mL
- DN AUClast ([6]; female rats, 0.75 mg/kg): 921
- SC AUClast ([6]; female rats, 0.75 mg/kg): 54.0 ng·h/mL
- T1/2 ([6]; female rats, 0.75 mg/kg): 35.4 min
- Vz ([6]; female rats, 0.75 mg/kg): 0.677 L/kg
- % AUC* Extrapolated ([6]; female rats, 1.25 mg/kg): 17%
- AUC* ([6]; female rats, 1.25 mg/kg): 2853 ng·h/mL
- AUClast ([6]; female rats, 1.25 mg/kg): 2359 ng·h/mL
- Cl ([6]; female rats, 1.25 mg/kg): 7.3 mL/min/kg
- Co ([6]; female rats, 1.25 mg/kg): 3849 ng/mL
- DN AUClast ([6]; female rats, 1.25 mg/kg): 1887
- SC AUClast ([6]; female rats, 1.25 mg/kg): 747 ng·h/mL
- T1/2 ([6]; female rats, 1.25 mg/kg): 108 min
- Vz ([6]; female rats, 1.25 mg/kg): 1.138 L/kg
- AUClast ([7]; 0.15 mg/kg): 335 ng·h/mL
- Cmax ([7]; 0.15 mg/kg): 370 ng/mL
- Co ([7]; 0.15 mg/kg): 566 ng/mL
- T1/2 ([7]; 0.15 mg/kg): 28.2 min
- Tmax ([7]; 0.15 mg/kg): 15 min
- AUClast ([7]; 0.30 mg/kg): 1020 ng·h/mL
- Cmax ([7]; 0.30 mg/kg): 731 ng/mL
- Co ([7]; 0.30 mg/kg): 857 ng/mL
- T1/2 ([7]; 0.30 mg/kg): 48.6 min
- Tmax ([7]; 0.30 mg/kg): 21 min
- AUClast ([7]; 0.50 mg/kg): 2120 ng·h/mL
- Cmax ([7]; 0.50 mg/kg): 1260 ng/mL
- Co ([7]; 0.50 mg/kg): 1930 ng/mL
- T1/2 ([7]; 0.50 mg/kg): 72 min
- Tmax ([7]; 0.50 mg/kg): 15 min
- bioavailability (in vivo): 1%

SMILES: COC(=O)C1C2CCC(O2)C1C(=O)N1CCN(C)CC1 (stereo not shown) [Compound 151]
- 151 in brain tissue (statement) ([8]; 151 given by mouth to rats): barely detectable in brain tissue
- levels of compound 100 in the plasma after 151 (statement) ([8]; 151 given by mouth to rats): substantial levels of compound 100 in the plasma
- oral bioavailability ([8]; Discussion): about 60%
